# Patent publication US8129399B2, “Aminopyrimidines useful as kinase inhibitors” (Vertex Pharmaceuticals Incorporated, priority 2005, dated 2012)
# Read-outs that look alike come from different tables or passages of the source.
# Experiments:
# Type in all cases: biochemical
# [1] = molecular target: Aurora-1 (Aurora B) (Homo sapiens, UniProt Q96GD4); assay: Aurora-1 (Aurora B) inhibition assay (radiometric)
# Procedure: An assay buffer solution was prepared which consisted of 25 mM HEPES (pH 7.5), 10 mM MgCl2, 0.1% BSA and 10% glycerol. […] To 22 μL of the Aurora-B solution, in a 96-well plate, was added 2 μl of a compound stock solution in DMSO and the mixture allowed to equilibrate for 10 minutes at 25° C. The enzyme reaction was initiated by the addition of 16 μl stock [γ-^33P]-ATP solution (˜20 nCi/μL) prepared in assay buffer, to a final assay concentration of 800 μM. The reaction was stopped after 3 hours by the addition of 16 μL 500 mM phosphoric acid and the levels of ^33P incorporation into the peptide substrate were determined by the following method.
# A phosphocellulose 96-well plate (Millipore, Cat no. MAPHNOB50) was pre-treated with 100 μL of a 100 mM phosphoric acid prior to the addition of the enzyme reaction mixture (40 μL). The solution was left to soak on to the phosphocellulose membrane for 30 minutes and the plate subsequently washed four times with 200 μL of a 100 mM phosphoric acid. […] Levels of non-enzyme catalyzed background radioactivity were determined by adding 16 μL of the 500 mM phosphoric acid to control wells, containing all assay components (which acts to denature the enzyme), prior to the addition of the [γ-^33P]-ATP solution. Levels of enzyme catalyzed ^33P incorporation were calculated by subtracting mean background counts from those measured at each inhibitor concentration. […] Ki values were calculated from initial rate data by non-linear regression using the Prism software package (Prism 3.0, Graphpad Software, San Diego, Calif.).
# [2] = molecular target: T1, JAK3 (Homo sapiens, UniProt P52333); assay: JAK3 inhibition assay
# T1 sequence (P52333 1-1124): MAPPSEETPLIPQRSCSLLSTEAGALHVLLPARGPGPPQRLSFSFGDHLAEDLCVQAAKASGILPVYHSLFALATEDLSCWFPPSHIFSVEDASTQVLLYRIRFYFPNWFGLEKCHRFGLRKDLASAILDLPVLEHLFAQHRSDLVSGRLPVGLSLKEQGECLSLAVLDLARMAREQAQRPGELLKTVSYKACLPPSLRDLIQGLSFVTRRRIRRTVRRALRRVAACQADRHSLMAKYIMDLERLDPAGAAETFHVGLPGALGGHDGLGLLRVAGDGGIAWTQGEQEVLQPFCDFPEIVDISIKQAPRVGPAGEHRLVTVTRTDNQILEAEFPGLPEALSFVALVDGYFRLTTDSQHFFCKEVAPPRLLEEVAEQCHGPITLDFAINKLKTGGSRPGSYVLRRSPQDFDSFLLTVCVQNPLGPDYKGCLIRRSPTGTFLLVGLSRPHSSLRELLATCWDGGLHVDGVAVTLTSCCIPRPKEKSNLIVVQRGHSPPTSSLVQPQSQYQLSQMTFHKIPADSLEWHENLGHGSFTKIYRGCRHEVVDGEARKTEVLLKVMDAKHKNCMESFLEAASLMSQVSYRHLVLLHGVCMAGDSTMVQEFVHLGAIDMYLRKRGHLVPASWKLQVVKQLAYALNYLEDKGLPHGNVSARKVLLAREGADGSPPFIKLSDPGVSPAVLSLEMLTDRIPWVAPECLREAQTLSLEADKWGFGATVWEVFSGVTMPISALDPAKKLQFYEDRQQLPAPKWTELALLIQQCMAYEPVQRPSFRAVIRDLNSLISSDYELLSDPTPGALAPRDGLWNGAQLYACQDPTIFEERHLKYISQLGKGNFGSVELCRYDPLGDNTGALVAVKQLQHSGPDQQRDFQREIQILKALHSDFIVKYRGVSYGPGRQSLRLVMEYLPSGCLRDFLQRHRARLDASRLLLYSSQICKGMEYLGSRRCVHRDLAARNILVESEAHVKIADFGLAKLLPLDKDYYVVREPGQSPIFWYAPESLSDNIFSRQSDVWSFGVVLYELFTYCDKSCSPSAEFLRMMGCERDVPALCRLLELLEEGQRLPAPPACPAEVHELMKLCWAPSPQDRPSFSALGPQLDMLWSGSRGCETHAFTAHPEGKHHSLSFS
# Procedure: Reactions were carried out in a kinase buffer containing 100 mM HEPES (pH 7.4), 1 mM DTT, 10 mM MgCl2, 25 mM NaCl, and 0.01% BSA. Substrate concentrations in the assay were 5 μM ATP (200 uCi/μmole ATP) and 1 μM poly(Glu)4Tyr. Reactions were carried out at 25° C. and 1 nM JAK3.
# To each well of a 96 well polycarbonate plate was added 1.5 μl of a candidate JAK3 inhibitor along with 50 μl of kinase buffer containing 2 μM poly(Glu)4Tyr and 10 μM ATP. This was then mixed and 50 μl of kinase buffer containing 2 nM JAK3 enzyme was added to start the reaction. After 20 minutes at room temperature (25 C), the reaction was stopped with 50 μl of 20% trichloroacetic acid (TCA) that also contains 0.4 mM ATP. The entire contents of each well were then transferred to a 96 well glass fiber filter plate using a TomTek Cell Harvester. After washing, 60 μl of scintillation fluid was added and ^33P incorporation detected on a Perkin Elmer TopCount.
# [3] = molecular target: N-terminally truncated (Δ 27) Abl kinase (Homo sapiens, UniProt P00519); assay: Abl kinase activity inhibition assay, coupled enzyme
# Chain of N-terminally truncated (Δ 27) Abl kinase (P00519 28-1130 limits assumed, stated change not applied): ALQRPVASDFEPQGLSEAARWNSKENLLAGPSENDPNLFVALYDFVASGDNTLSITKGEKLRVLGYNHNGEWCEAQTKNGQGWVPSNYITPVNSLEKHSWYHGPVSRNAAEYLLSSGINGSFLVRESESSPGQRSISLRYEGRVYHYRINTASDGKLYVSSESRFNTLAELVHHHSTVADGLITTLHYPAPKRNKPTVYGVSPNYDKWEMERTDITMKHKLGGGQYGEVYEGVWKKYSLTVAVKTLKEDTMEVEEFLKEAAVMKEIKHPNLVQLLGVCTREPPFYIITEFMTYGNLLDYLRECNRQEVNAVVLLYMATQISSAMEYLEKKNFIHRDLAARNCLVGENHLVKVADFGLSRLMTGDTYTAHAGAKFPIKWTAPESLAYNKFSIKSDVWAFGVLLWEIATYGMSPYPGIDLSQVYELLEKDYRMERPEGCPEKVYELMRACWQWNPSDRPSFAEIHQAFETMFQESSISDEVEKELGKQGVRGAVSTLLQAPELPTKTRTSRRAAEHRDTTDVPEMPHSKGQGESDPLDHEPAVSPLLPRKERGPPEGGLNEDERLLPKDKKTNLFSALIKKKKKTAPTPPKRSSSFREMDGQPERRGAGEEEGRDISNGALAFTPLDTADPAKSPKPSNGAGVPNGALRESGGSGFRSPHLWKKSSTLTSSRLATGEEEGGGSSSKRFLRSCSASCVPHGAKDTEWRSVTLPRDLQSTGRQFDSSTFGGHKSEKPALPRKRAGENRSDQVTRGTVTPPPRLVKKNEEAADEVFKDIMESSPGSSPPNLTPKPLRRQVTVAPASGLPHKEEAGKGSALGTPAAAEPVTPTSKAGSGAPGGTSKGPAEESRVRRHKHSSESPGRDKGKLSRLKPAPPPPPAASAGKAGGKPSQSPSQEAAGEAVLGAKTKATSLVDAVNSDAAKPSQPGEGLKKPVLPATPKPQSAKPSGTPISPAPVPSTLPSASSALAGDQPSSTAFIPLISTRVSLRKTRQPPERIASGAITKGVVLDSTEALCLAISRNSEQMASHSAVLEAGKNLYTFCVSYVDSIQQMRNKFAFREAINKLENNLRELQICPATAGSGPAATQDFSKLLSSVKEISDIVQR
# Procedure: Reactions were carried out in a solution containing 100 mM HEPES (pH 7.5), 10 mM MgCl2, 25 mM NaCl, 300 μM NADH, 1 mM DTT and 3% DMSO. […] Final concentrations of the components of the coupled enzyme system were 2.5 mM phosphoenolpyruvate, 200 μM NADH, 60 μg/ml pyruvate kinase and 20 μg/ml lactate dehydrogenase.
# An assay stock buffer solution was prepared containing all of the reagents listed above with the exception of ATP and the test compound of interest. […] Rates of reaction were obtained using a Molecular Devices Spectramax plate reader (Sunnyvale, Calif.) over 10 min at 30° C. The Ki values were determined from the residual rate data as a function of inhibitor concentration using nonlinear regression (Prism 3.0, Graphpad Software, San Diego, Calif.).
# [4] = molecular target: Arg (Abl-2) (Homo sapiens, UniProt P42684); assay: Arg (Abl-2) inhibition screen; details: ATP at or close to Km
# Chain of Arg (Abl-2) (P42684 whole entry, species assumed): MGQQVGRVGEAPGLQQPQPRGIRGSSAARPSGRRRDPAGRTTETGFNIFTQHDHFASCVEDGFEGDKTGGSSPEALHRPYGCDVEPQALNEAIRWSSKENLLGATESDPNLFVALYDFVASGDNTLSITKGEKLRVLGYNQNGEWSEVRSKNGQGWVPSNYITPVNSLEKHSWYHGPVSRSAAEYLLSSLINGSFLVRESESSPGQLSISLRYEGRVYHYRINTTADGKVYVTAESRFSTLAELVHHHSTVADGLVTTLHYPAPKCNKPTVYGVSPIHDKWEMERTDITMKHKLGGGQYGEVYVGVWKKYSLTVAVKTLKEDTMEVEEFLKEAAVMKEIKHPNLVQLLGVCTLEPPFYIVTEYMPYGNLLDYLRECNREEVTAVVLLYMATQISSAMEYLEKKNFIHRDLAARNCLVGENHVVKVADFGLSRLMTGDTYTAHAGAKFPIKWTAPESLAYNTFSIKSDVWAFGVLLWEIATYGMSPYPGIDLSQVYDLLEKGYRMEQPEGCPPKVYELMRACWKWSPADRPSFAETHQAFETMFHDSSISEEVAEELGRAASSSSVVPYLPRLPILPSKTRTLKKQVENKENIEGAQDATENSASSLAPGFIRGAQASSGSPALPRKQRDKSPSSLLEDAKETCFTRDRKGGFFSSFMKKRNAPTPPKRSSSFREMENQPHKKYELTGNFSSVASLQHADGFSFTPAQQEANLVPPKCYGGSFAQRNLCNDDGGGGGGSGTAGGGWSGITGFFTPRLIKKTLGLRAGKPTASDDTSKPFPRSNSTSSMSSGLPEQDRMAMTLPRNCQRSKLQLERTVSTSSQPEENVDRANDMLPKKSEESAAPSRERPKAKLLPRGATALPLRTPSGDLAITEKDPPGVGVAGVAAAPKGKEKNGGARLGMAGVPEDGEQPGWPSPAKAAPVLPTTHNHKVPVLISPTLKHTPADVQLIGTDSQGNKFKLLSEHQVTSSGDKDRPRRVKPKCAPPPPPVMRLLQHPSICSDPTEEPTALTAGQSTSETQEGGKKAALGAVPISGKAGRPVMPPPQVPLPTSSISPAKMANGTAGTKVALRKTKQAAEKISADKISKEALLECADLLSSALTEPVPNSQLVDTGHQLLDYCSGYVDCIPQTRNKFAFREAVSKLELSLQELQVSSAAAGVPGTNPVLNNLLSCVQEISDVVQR
# Description: (§1) Compound(s) were screened for their ability to inhibit Arg (Abl-2), FGFR1, MLK1, Tie2, and TrkA using screening methods known to one of ordinary skill in the art. All of the above enzymes were screened with ATP concentrations at or close to the Km for ATP.
# [5] = molecular target: FGFR1 (Homo sapiens, UniProt P11362); assay: FGFR1 inhibition screen; details: ATP at or close to Km
# Chain of FGFR1 (P11362 22-822, species assumed): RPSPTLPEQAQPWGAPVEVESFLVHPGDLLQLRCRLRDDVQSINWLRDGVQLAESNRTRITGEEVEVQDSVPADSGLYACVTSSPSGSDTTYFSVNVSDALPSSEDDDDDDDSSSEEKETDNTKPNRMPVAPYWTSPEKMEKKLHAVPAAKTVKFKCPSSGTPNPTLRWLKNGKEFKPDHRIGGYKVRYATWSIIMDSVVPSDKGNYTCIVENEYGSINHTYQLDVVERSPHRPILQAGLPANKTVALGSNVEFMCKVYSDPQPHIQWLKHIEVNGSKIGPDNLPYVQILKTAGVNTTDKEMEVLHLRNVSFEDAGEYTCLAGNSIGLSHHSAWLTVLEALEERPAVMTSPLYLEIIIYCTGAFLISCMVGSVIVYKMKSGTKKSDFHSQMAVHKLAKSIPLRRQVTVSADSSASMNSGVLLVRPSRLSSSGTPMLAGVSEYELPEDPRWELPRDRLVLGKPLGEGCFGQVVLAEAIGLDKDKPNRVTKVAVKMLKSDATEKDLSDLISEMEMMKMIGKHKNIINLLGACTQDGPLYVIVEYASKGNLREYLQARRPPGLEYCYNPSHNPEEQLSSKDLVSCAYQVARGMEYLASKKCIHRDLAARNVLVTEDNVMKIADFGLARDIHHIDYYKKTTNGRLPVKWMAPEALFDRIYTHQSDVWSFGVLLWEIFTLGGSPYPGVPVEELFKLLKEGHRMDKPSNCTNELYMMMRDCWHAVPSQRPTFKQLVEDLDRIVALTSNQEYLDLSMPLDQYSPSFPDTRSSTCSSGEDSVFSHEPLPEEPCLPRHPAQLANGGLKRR
# Description: as §1
# [6] = molecular target: Tie2 (Homo sapiens, UniProt Q02763); assay: Tie2 inhibition screen; details: ATP at or close to Km
# Chain of Tie2 (Q02763 23-1124, species assumed): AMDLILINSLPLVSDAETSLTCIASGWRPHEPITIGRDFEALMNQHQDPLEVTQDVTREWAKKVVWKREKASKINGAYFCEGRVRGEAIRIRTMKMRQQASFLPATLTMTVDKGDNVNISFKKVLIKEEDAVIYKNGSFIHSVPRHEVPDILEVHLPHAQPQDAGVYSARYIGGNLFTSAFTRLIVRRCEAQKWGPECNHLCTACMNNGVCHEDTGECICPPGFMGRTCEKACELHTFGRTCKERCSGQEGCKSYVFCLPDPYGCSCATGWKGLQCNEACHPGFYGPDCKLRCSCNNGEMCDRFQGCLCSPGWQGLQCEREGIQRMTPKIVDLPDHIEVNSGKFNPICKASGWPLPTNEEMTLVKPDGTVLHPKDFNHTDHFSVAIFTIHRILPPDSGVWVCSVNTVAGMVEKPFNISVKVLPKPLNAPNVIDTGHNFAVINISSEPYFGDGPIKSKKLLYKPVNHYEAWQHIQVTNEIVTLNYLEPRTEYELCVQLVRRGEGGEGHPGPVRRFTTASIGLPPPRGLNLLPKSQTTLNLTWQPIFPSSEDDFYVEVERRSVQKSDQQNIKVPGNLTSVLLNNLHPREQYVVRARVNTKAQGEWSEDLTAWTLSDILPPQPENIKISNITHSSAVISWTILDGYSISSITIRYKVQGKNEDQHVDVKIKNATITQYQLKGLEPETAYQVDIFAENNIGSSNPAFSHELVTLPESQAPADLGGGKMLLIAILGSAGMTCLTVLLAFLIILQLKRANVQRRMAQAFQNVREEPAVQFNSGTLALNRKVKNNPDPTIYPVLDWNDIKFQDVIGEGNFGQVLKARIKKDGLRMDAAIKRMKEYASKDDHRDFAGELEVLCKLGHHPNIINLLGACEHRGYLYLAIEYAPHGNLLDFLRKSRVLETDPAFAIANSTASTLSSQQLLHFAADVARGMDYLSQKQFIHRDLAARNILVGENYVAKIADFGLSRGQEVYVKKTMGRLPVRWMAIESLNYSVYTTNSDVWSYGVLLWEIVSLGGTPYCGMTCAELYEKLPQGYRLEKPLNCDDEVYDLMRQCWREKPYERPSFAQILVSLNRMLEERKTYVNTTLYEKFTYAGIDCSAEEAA
# Description: as §1
# [7] = 800 μM ATP, read-out: Aurora B Ki
# [8] = Table 6, introduced as Ki values
# Chain of Aurora-1 (Aurora B) (Q96GD4 whole entry): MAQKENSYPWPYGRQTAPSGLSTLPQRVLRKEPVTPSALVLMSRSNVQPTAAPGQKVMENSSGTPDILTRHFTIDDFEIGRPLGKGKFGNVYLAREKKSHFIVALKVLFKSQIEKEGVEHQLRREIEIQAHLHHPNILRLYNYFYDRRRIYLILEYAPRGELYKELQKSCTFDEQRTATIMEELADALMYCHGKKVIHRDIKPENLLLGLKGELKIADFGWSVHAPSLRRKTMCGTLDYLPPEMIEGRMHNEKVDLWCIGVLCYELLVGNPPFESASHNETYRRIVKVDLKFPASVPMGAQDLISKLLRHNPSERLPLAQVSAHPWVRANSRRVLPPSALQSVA
SMILES,"Ki [1, 7]",Ki [2],Ki [3],also measured
CCC(=O)Nc1ccc(Sc2nc(Nc3cc(C)n[nH]3)cc(N3CC(O)(C4CC4)C3)n2)cc1 [Compound I-2],7.6 nM,160 nM,64 nM,
CCC(=O)Nc1ccc(Sc2nc(Nc3cc(C)n[nH]3)cc(N3CC(O)(C4CCCC4)C3)n2)cc1 [Compound I-3],6.5 nM,150 nM,30 nM,
CCC(=O)Nc1ccc(Sc2nc(Nc3cc(C)n[nH]3)cc(N3CC(O)(C(C)C)C3)n2)cc1 [Compound I-5],14 nM,100 nM,,
CCC(=O)Nc1ccc(Sc2nc(Nc3cc(C)n[nH]3)cc(N3CC(O)(C(C)CC)C3)n2)cc1 (centres unmarked) [Compound I-6],,190 nM,,Ki [1]: 6.2 nM
CCC(=O)Nc1ccc(Sc2nc(Nc3cc(C4CC4)[nH]n3)cc(N3CC(O)(C4CC4)C3)n2)cc1 [Compound I-7],< 6 nM,37 nM,,
Cc1cc(Nc2cc(N3CC(O)(C4CC4)C3)nc(Sc3ccc(NC(=O)C4CC4)cc3)n2)n[nH]1 [Compound I-8],7.1 nM,140 nM,30 nM,
"Cc1cc(Nc2cc(N3CC(O)(C4CC4)C3)nc(Sc3ccc(NC(=O)C4CCCC4)cc3)n2)[nH]n1 [Compound I-9, N-(4-((4-(3-methyl-1H-pyrazol-5-ylamino)-6-(3-cyclopropyl-3-hydroxyazetidin-1-yl)pyrimidin-2-yl)sulfanyl)phenyl)cyclopentanecarboxamide]",< 6 nM,150 nM,,
O=C(Nc1ccc(Sc2nc(Nc3cc(C4CC4)[nH]n3)cc(N3CC(O)(C4CC4)C3)n2)cc1)C1CC1 [Compound I-10],7 nM,51 nM,,
"Cc1cc(Nc2cc(N3CC(O)(C4CC4)C3)nc(Sc3ccc(NC(=O)C4CC4)cc3F)n2)[nH]n1 [Compound I-11, N-(4-((4-(3-methyl-1H-pyrazol-5-ylamino)-6-(3-cyclopropyl-3-hydroxyazetidin-1-yl)pyrimidin-2-yl)sulfanyl)-3-fluorophenyl)cyclopropanecarboxamide]",9 nM,56 nM,,
Cc1cc(Nc2cc(N3CC(O)(C4CC4)C3)nc(Sc3ccc(NC(=O)C4CC4(F)F)cc3)n2)[nH]n1 (centres unmarked) [Compound I-12],3 nM,28 nM,,
Cc1cc(Nc2cc(N3CC(F)(C4CC4)C3)nc(Sc3ccc(NC(=O)C4CC4)cc3)n2)n[nH]1 [Compound I-13],22 nM,290 nM,88 nM,
"Cc1cc(Nc2cc(N3CC(F)(C4CC4)C3)nc(Sc3ccc(NC(=O)CC(F)(F)F)cc3)n2)[nH]n1 [Compound I-14, N-(4-(4-(3-methyl-1H-pyrazol-5-ylamino)-6-(3-cyclopropyl-3-fluoroazetidin-1-yl)pyrimidin-2-ylthio)phenyl)-3,3,3-trifluoropropanamide]",6.8 nM,77 nM,23 nM,"IC50 ([4]; Table 5): 14 nM; IC50 [4, 8]: 3.3 nM; IC50 ([5]; Table 5): 121 nM; IC50 [5, 8]: 65 nM; IC50 ([6]; Table 5): 89 nM; IC50 [6, 8]: 47 nM"
Cc1cc(Nc2cc(N3CC(F)(C4CC4)C3)nc(Sc3ccc(NC(=O)C4CC4)cc3F)n2)n[nH]1 [Compound I-18],,220 nM,,Ki [1]: 18 nM; IC50 ([4]; Table 5): 53 nM; IC50 ([5]; Table 5): 22 nM
Cc1cc(Nc2cc(N3CC(F)(C4CC4)C3)nc(Sc3ccc(NC(=O)CC4CC4)cc3)n2)[nH]n1 [Compound I-19],21 nM,620 nM,,IC50 ([4]; Table 5): 130 nM; IC50 ([5]; Table 5): 35 nM
Cc1cc(Nc2cc(N3CC(F)(C4CC4)C3)nc(Sc3ccc(NC(=O)C4CC4(F)F)cc3)n2)[nH]n1 (centres unmarked) [Compound I-20],18 nM,110 nM,,
"Cc1cc(Nc2cc(N3CC(F)(C4CC4)C3)nc(Sc3ccc(NC(=O)CC(F)(F)F)nc3)n2)[nH]n1 [Compound I-21, N-(5-(4-(3-methyl-1H-pyrazol-5-ylamino)-6-(3-cyclopropyl-3-fluoroazetidin-1-yl)pyrimidin-2-ylthio)pyridin-2-yl)-3,3,3-trifluoropropanamide]",9.5 nM,100 nM,,
